Test results: ChEMBL document CHEMBL2029292, “Identification of novel adenosine A(2A) receptor antagonists by virtual screening” (J Med Chem, 2012)

How the values were obtained:
[1] = molecular target: Adenosine receptor A2a (Homo sapiens, UniProt P29274); assay: Displacement of [3H]ZM241385 from human A2A receptor expressed in HEK293 cells after 1 hr by liquid scintillation counting; type: cell-based
[2] = tested on: HEK293; assay: Selectivity ratio of Ki for human A1 receptor expressed in CHO cells to Ki for human A2A receptor expressed in HEK293 cells; type: cell-based

Sequence of Adenosine receptor A2a (P29274 whole entry): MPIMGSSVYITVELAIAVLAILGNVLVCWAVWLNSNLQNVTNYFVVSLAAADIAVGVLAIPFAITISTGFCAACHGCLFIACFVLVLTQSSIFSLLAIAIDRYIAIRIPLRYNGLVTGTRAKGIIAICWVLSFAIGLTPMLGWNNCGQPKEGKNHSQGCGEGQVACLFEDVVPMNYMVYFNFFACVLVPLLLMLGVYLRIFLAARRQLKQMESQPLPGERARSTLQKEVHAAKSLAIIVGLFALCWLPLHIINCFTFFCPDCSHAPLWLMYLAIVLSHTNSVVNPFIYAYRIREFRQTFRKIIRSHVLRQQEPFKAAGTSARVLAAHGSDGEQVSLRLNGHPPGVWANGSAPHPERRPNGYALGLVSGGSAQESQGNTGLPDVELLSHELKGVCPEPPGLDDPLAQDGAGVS

Row | SMILES | Ki [1] [nM] | Ratio Ki [2]
1 | O=C(c1ccc(F)cc1)c1c[nH]c(C(=O)NCCCn2ccnc2)c1 | 4680 | –
2 | CC1CC(c2ccccc2)n2nc(N3C(=O)C4CC=CCC4C3=O)nc2N1 (stereo unspecified) | 2000 | –
3 | NC(c1csc(Nc2nncc3ccccc23)n1)c1ccccc1Cl (stereo unspecified) | 2400 | –
4 | CN1CCN(C(=O)c2cccc(-c3nc(N)nc(-c4ccccc4O)n3)c2)CC1 | 1.02 | 59
5 | COC1CCN(c2cccc(-c3nc(N)nc(-c4ccccc4O)n3)c2)CC1 | 1.58 | 19
6 | CSc1nc2nc3c(c(O)n2n1)CN(Cc1ccccc1)CC3 | 708 | –

Continued, in another order:

Row | Ki [1] [nM] | SMILES | Ratio Ki [2]
7 | 15.1 | CCc1cc2c(=O)c(-c3nc(C)cs3)coc2cc1OCC(=O)OC(C)C | > 100
8 | 2950 | COc1ccc(N2CC(C(=O)NC(Cc3ccccc3)C(=O)O)CC2=O)cc1 (stereo unspecified) | –
9 | 1780 | Cc1cc(O)c(C(C)C)cc1N=C1CSC(=O)N1 | –
10 | 33.9 | CC(=O)Oc1cc(C)c2c(=O)c(-c3nc(C)cs3)coc2c1 | 13
11 | 3.47 | Cc1ccsc1/C=C/c1nc(N)nc(-c2ccccc2O)n1 | 9.5
12 | 1230 | COCCN1C(=O)c2[nH]nc(-c3ccccc3O)c2C1c1ccc(F)cc1 (stereo unspecified) | –
13 | 2240 | Cc1csc(-c2coc3cc(OCC(=O)O)cc(C)c3c2=O)n1 | –
14 | 12.3 | CC(C)c1nc(N)nc(-c2ccccc2O)n1 | 37
15 | 7080 | Nc1cccc(CC2SC(=O)NC2=O)c1 (stereo unspecified) | –
